Several values for one entry are separate records, joined by “and”; a condition that tells them apart may be missing. Equal entries are not always repeated.
Experiments:
[1] = Photochromic property of binder sheet (photochromic layer made by binder method); format: physicochemical; conditions: for Residual ratio: A96/A0 x 100 after 96 hours accelerated degradation, xenon weather meter X25; for Color developing density at 23°C: absorbance difference after 240 seconds irradiation at the maximum absorption wavelength of the same line
Experimental: The resulting photochromic laminates were evaluated by the below-mentioned methods. • (1) Photochromic property • [1] Maximum absorption wavelength (λmax): This is the maximum absorption wavelength after color development determined by a spectrophotometer manufactured by Otsuka Electronics Co., Ltd. (instantaneous multichannel photo detector MCPD3000) and was used as an index of a color tone upon color development. • [2] Color developing density at 23°C (A23): This is a difference between an absorbance {ε(240)} after irradiation with light at 23°C for 240 seconds and an absorbance ε(0) when not irradiated with light at the maximum absorption wavelength and was used as an index of a color developing density. The higher this value is, the better a photochromic property is. • [3] Color fading half-life at 23°C [τ1/2 (sec).)]: This is a period of time taken by an absorbance at the maximum absorption wavelength of a sample to decrease to 1/2 of {ε(240)-ε(0)} when irradiation is stopped after irradiation with light at 23°C for 240 seconds, and was used as an index of a color fading rate. The shorter this period of time is, the faster the color fading rate is. • [4] Residual ratio (A96/A0 x 100): The resulting photochromic plastic lens was subjected to accelerated degradation for 96 hours using a xenon weather meter X25 manufactured by Suga Test Instruments Co., Ltd. Color developing densities were then evaluated before and after a test, and a color developing density before the test (A0) and a color developing density after the test (A96) were measured. A ratio (A96/A0) was determined as a residual ratio and was used as an index of color development durability. The higher the residual ratio is, the more durable the color development is.
A binder sheet was produced as follows. The binder sheet was made by laminating a first optical sheet, a first adhesive layer, a photochromic layer, a second adhesive layer, and a second optical sheet in this order. A polycarbonate sheet with a thickness of 400 µm was used as the first optical sheet and the second optical sheet.
A 2 L four-necked flask equipped with a stirring blade, a condense tube, a thermometer, and a nitrogen gas inlet tube was charged with 315 parts by mass of polycarbonate diol with a number average molecular weight of 1000, 100 parts by mass of isophorone diisocyanate, and 72 parts by mass of toluene and reacted under a nitrogen atmosphere at 100°C for 7 hours. Thus, a urethane prepolymer with a terminal isocyanate group was synthesized. After the reaction of the above-mentioned urethane prepolymer was completed, the resulting reaction liquid was cooled to about 0°C and dissolved in 205 parts by mass of tertiary-butyl alcohol and 382 parts by mass of diethyl ketone, and then a temperature of the resulting liquid was kept at 0°C. Next, a mixed solution of 21.3 parts by mass of bis-(4-aminocyclohexyl)methane serving as a chain extender and 20 parts by mass of diethyl ketone was added dropwise thereto within 30 minutes and reacted at 0°C for 1 hour. Then, 8.1 parts by mass of 1,2,2,6,6-pentamethyl-4-aminopiperidine was added dropwise thereto and reacted at 0°C for 1 hour to obtain a solution of a terminal non-reactive urethane urea resin in diethylketone.
One hundred parts by mass of the resulting solution of a terminal non-reactive urethane urea resin, 6.3 parts by mass of Example 1 (a photochromic compound represented by Formula (1-7), an isomer mixture of 4,4'-methylenebis(cyclohexylisocyanate) (polyisocyanate compound)), 0.4 parts by mass of ethylenebis(oxyethylene) bis[3-(5-tert-butyl-4-hydroxy-m-tolyl) propionate] serving as an antioxidant, and 0.06 parts by mass of L-7001 manufactured by DuPont Toray Specialty Materials K.K. serving as a surfactant were added and stirred and mixed at room temperature to obtain a composition for forming a photochromic layer. […]

[2] = Solubility of photochromic compound in polymerizable compounds; format: physicochemical; design: key: 1: No haze is seen when checked under transmission of light, and the sample is completely dissolved.; 2: A very thin haze is seen to the extent that it can be seen under transmission of light.; 3: A thin haze that can be seen under transmission of light is seen.; 4: A haze can be seen even without transmission of light; conditions: 35 µmol/g in radical polymerizable compound composition of Example 21, 65 to 70°C; for Dissolution for 15 min / Dissolution for 30 min / Dissolution for 45 min: stirring and ultrasonic irradiation; for Dissolution for 1 hour: head reads 60 min in Tables 8 to 14
Summary of the method: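 Photochromic compound was added to the radical polymerizable portion of a curable composition and dissolved at 65 to 70°C under stirring and intermittent ultrasonication. The sample was inspected visually by transmitted light every 15 minutes up to 1 h and scored 1 (fully dissolved, no haze) to 4 (haze visible without transmitted light). Solubility was ranked by the time taken to reach score 1.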

| Residual ratio [1] | Dissolution for 15 min [2] | Dissolution for 30 min [2] | Dissolution for 45 min [2] | Dissolution for 1 hour [2] | Color developing density at 23°C [1] | Structure (SMILES) |
| --- | --- | --- | --- | --- | --- | --- |
| 75% and 72% | 4 | 2 | 1 | 1 |  | CCCCC1(CCC)c2ccccc2-c2c1c1c(c3cc(OC)c(N4CCOCC4)cc23)OC(c2ccc(OC)cc2)(c2ccc(OC)cc2)C=C1 (stereo not shown) [Formula (6-2)] |
| 75% | 4 | 2 | 1 | 1 |  | CCCC1(CC)c2ccccc2-c2c1c1c(c3cc(OC)c(N4CCOCC4)cc23)OC(c2ccc(OC)cc2)(c2ccc(OC)cc2)C=C1 (stereo not shown) [Formula (14-1)] |
| 71% and 74% | 3 | 2 | 1 | 1 |  | CCCCCCC1(CC)c2ccccc2-c2c1c1c(c3cc(OC)c(N4CCOCC4)cc23)OC(c2ccc(OC)cc2)(c2ccc(OC)cc2)C=C1 (stereo not shown) [Formula (18-1)] |
| 50% and 51% | 4 | 3 | 1 | 1 | 1.32 - and 0.71 - | CCC1(OC)c2ccccc2-c2c1c1c(c3cc(OC)c(N4CCOCC4)cc23)OC(c2ccc(OC)cc2)(c2ccc(OC)cc2)C=C1 (stereo not shown) [Formula (B), reference compound] |

Continued, molecule first:

| Structure (SMILES) | Residual ratio [1] | Dissolution for 15 min [2] | Dissolution for 30 min [2] | Dissolution for 45 min [2] | Dissolution for 1 hour [2] | Color developing density at 23°C [1] |
| --- | --- | --- | --- | --- | --- | --- |
| CCC1(C)c2ccccc2-c2c1c1c(c3cc(OC)c(N(C)c4ccccc4)cc23)OC(c2ccc(OC)cc2)(c2ccc(OC)cc2)C=C1 (stereo not shown) [Formula (9-1)] | 93% | 4 | 2 | 2 | 1 | 1.19 - |
| CCCCCCCCCCCC1(C)c2ccccc2-c2c1c1c(c3cc(OC)c(N4CCOCC4)cc23)OC(c2ccc(OC)cc2)(c2ccc(OC)cc2)C=C1 (stereo not shown) [Formula (19-1)] | 62% and 66% | 2 | 1 | 1 | 1 |  |
| COc1ccc(C2(c3ccc(OC)cc3)C=Cc3c4c(c5cc(N6CCOCC6)c(OC)cc5c3O2)-c2ccccc2C4(C)C)cc1 [Formula (A), reference compound] | 63% and 65% | 4 | 3 | 3 | 3 |  |

From patent publication EP4763837A1, “PHOTOCHROMIC COMPOUND, CURABLE COMPOSITION, OPTICAL ARTICLE, LENS, AND EYEGLASSES” (TOKUYAMA CORPORATION, priority 2023, dated 2025)
